Test results: the supplement of paper PMC12463676, “Small-molecule dissolution of stress granules by redox modulation benefits ALS models” (Nature Chemical Biology, 2025)

Key:
potassium arsenate = compound: O=[As]([O-])(O)O.[K+] [potassium arsenate]; assay: thermal stability z-score vs DMSO; higher = more thermally stabilized by treatment; conditions: HeLa; arsenate concentration 1 mM
Experimental: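 Cellular thermal proteome profiling in HeLa cells treated with 1 mM arsenate for 1 h (DMSO pretreatment), heated to ten temperatures (37-66.3 °C). Soluble protein was quantified by TMT mass spectrometry relative to DMSO controls; the thermal stability score was transformed to a z-score; mean of n = 3 experiments.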

lipoamide = compound: NC(=O)CCCCC1CCSS1 [lipoamide]; assay: as above; conditions: HeLa, lipoamide concentration 100 µM
Experimental: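 Cellular thermal proteome profiling in HeLa cells. Cells were treated with 100 µM lipoamide for 1 h, with or without 1 mM arsenate for a further 1 h, then heated to ten temperatures (37-66.3 °C), and soluble protein was quantified by TMT mass spectrometry relative to 0.1% DMSO controls. The thermal stability score (sum of log2 fold changes minus the abundance score) was transformed to a z-score; mean of n = 3 experiments.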

[1] = arsenate co-treatment: 1 mM arsenate 1 h
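Further: each temperature applied for 3 min, abundance score taken as mean log2 fold change at the two lowest temperatures, z-score obtained by mean subtraction and division by SD.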

Chain of UniProt Q9Y3R5 (Q9Y3R5 whole entry): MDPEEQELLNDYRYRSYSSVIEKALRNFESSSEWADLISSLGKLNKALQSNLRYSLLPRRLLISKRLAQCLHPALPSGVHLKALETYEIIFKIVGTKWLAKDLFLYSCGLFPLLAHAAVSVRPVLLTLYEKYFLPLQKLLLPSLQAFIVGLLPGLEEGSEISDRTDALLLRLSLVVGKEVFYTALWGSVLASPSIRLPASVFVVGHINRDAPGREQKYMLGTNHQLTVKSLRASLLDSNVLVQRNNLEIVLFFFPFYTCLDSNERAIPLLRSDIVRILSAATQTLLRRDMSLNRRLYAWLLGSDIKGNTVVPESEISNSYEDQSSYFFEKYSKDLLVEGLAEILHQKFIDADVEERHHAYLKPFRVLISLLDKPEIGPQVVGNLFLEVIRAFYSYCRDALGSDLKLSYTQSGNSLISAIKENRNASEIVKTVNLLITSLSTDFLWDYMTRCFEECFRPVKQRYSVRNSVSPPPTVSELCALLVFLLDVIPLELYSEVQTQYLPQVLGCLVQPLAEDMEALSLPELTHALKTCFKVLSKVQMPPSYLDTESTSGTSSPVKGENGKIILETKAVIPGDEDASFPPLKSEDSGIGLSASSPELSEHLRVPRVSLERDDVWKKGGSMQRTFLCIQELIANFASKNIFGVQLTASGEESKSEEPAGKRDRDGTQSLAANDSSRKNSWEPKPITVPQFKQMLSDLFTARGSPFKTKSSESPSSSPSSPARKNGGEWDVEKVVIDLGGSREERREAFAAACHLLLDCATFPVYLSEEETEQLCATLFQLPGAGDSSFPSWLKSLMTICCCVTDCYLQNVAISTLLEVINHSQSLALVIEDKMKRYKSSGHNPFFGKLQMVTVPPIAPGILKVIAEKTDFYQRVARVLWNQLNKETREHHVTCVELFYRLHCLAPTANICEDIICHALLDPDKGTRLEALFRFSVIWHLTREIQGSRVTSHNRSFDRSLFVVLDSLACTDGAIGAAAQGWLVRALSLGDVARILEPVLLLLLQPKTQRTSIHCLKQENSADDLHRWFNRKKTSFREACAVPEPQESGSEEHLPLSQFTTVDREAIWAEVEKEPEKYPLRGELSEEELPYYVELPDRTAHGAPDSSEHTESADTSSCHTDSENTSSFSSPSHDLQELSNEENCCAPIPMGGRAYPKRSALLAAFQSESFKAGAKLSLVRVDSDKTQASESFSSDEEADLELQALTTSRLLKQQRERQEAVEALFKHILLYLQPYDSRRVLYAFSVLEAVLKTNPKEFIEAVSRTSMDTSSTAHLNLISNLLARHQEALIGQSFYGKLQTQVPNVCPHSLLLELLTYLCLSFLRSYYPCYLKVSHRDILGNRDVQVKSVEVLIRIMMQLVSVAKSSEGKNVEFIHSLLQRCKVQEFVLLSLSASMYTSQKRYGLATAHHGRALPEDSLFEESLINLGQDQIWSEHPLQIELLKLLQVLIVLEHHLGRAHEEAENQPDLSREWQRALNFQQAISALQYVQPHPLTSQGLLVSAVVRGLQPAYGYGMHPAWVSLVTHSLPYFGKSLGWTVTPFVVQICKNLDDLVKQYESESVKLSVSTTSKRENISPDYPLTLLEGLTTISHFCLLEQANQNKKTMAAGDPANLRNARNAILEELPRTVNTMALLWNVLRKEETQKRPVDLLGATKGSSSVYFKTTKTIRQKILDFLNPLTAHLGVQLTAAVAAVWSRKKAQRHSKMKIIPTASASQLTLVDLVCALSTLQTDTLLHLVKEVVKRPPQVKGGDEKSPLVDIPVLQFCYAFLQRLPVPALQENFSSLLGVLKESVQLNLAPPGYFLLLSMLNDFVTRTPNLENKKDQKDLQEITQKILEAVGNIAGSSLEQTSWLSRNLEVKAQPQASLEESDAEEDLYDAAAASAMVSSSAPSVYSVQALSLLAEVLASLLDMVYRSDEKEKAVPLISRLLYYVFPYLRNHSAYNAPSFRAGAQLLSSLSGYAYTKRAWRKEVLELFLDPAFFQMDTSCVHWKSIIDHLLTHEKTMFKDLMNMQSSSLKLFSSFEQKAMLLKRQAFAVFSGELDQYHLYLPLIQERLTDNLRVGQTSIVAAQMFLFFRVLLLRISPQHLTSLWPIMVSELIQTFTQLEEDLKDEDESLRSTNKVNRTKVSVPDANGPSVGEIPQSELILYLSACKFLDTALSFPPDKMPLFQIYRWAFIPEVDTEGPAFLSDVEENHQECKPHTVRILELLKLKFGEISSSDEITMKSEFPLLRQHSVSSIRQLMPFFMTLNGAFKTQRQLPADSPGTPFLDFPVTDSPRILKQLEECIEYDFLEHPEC
Chain of UniProt O43598 (O43598 whole entry): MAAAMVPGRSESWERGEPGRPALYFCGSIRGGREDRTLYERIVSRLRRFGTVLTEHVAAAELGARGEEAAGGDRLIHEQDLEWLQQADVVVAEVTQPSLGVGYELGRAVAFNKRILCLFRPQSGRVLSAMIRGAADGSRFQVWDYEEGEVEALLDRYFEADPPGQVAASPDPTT
Chain of UniProt Q99543 (Q99543 whole entry): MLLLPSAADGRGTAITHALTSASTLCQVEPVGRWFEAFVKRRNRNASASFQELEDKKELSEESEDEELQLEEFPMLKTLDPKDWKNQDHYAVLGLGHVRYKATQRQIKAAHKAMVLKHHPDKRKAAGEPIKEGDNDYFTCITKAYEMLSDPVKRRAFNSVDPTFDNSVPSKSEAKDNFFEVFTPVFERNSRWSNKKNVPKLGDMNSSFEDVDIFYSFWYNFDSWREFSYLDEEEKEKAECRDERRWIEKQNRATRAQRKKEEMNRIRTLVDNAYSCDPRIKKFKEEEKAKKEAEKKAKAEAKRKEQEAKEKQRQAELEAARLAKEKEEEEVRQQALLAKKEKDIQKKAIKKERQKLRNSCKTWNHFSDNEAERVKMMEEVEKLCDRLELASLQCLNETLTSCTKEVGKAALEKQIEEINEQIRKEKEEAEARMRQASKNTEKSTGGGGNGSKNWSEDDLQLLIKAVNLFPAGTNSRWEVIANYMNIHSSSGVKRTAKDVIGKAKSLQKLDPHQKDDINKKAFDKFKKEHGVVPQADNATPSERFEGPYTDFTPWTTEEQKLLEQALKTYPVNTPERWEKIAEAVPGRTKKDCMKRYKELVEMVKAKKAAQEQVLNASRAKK
Chain of UniProt P25685 (P25685 whole entry): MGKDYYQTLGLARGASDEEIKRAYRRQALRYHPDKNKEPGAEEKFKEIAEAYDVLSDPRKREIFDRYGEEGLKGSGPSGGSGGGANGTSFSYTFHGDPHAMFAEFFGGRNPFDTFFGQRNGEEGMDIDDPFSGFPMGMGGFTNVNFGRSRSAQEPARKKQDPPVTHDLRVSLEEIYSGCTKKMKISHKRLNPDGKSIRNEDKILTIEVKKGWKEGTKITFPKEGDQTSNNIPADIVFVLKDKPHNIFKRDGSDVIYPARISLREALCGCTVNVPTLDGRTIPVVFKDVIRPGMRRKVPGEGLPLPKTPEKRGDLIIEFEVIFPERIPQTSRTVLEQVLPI
Chain of UniProt Q5QJE6 (Q5QJE6 whole entry): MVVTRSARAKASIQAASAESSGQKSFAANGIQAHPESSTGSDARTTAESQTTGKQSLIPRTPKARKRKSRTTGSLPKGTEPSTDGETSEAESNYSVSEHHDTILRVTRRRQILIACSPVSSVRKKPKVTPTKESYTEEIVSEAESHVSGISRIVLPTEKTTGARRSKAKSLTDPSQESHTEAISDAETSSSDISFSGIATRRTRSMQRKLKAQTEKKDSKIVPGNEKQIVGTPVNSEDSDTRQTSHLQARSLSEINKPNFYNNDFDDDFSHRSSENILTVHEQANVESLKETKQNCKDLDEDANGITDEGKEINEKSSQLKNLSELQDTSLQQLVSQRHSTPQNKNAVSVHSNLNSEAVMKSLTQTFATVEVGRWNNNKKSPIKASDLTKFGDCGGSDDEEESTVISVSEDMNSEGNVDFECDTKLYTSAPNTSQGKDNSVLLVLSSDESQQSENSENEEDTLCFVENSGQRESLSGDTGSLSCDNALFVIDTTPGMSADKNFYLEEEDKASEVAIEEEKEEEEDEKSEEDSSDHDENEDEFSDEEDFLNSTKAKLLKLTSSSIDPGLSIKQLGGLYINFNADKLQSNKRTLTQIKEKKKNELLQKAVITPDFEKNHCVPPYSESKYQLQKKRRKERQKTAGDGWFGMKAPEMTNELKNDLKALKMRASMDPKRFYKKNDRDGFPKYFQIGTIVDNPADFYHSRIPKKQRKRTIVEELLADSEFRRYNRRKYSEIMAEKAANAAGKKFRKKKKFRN
Chain of UniProt Q8WXX5 (Q8WXX5 whole entry): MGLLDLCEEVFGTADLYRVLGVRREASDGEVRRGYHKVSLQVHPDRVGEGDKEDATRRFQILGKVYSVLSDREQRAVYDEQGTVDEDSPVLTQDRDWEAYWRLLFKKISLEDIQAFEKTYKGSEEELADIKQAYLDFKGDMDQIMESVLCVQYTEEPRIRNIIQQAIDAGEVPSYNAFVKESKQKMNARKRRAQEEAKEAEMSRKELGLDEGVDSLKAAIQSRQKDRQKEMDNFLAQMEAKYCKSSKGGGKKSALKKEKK
Chain of UniProt Q92785 (Q92785 whole entry): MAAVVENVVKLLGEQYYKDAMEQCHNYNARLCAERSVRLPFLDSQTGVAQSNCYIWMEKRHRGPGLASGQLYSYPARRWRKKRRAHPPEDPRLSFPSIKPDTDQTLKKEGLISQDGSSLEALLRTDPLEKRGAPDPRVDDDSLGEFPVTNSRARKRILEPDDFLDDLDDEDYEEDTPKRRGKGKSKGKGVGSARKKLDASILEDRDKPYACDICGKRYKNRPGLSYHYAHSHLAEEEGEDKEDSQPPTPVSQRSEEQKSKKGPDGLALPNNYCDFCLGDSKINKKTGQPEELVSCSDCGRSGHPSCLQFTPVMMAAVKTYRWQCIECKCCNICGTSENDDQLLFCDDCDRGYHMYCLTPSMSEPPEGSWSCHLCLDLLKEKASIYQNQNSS
Chain of UniProt Q9BVM2 (Q9BVM2 whole entry): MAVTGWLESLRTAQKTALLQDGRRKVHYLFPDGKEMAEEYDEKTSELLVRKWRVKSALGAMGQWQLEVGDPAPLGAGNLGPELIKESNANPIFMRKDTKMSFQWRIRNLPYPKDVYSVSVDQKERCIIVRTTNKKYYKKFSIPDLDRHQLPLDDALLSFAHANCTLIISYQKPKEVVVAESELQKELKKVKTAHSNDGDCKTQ

Target DNAJA2 (UniProt O60884) has a thermal stability z-score (potassium arsenate) of -0.26, a thermal stability z-score (lipoamide; [1]) of -0.922 and a thermal stability z-score (lipoamide; arsenate co-treatment: none) of -1.05.

DNAJA3 (UniProt Q96EY1) was tested, and the thermal stability z-score (potassium arsenate) was 0.258, the thermal stability z-score (lipoamide; [1]) was -1.12 and the thermal stability z-score (lipoamide; arsenate co-treatment: none) was -0.564.

Target DNAJB1 (UniProt P25685) has a thermal stability z-score (potassium arsenate) of 0.294, a thermal stability z-score (lipoamide; [1]) of 0.448 and a thermal stability z-score (lipoamide; arsenate co-treatment: none) of 0.397.

Work on DNAJB2 (UniProt P25686) yielded a thermal stability z-score (potassium arsenate) of 0.142, a thermal stability z-score (lipoamide; [1]) of 0.422 and a thermal stability z-score (lipoamide; arsenate co-treatment: none) of 0.0161.

Target DNAJB4 (UniProt Q9UDY4) has a thermal stability z-score (potassium arsenate) of -0.708, a thermal stability z-score (lipoamide; [1]) of -0.368 and a thermal stability z-score (lipoamide; arsenate co-treatment: none) of -0.146.

In the case of DNAJB6 (UniProt O75190), the thermal stability z-score (potassium arsenate) is reported as 0.728, the thermal stability z-score (lipoamide; [1]) is reported as 1.19 and the thermal stability z-score (lipoamide; arsenate co-treatment: none) is reported as 0.248.

In the case of DNAJB11 (UniProt Q9UBS4), the thermal stability z-score (potassium arsenate) is reported as 0.319, the thermal stability z-score (lipoamide; [1]) is reported as -2.65 and the thermal stability z-score (lipoamide; arsenate co-treatment: none) is reported as -2.51.

In the case of DNAJB12 (UniProt Q9NXW2), the thermal stability z-score (potassium arsenate) is reported as 0.182, the thermal stability z-score (lipoamide; [1]) is reported as -0.267 and the thermal stability z-score (lipoamide; arsenate co-treatment: none) is reported as -0.124.

Work on DNAJB14 (UniProt Q8TBM8) yielded a thermal stability z-score (potassium arsenate) of -0.17, a thermal stability z-score (lipoamide; [1]) of 0.0418 and a thermal stability z-score (lipoamide; arsenate co-treatment: none) of 0.157.

DNAJC1 (UniProt Q96KC8) was tested, and the thermal stability z-score (potassium arsenate) was -0.725, the thermal stability z-score (lipoamide; [1]) was -0.436 and the thermal stability z-score (lipoamide; arsenate co-treatment: none) was -0.516.

DNAJC2 (UniProt Q99543) showed a thermal stability z-score (potassium arsenate) of 1.09, a thermal stability z-score (lipoamide; [1]) of -0.0501 and a thermal stability z-score (lipoamide; arsenate co-treatment: none) of 0.0208.

DNAJC3 (UniProt Q13217) gave a thermal stability z-score (potassium arsenate) of 0.823, a thermal stability z-score (lipoamide; [1]) of -4.01 and a thermal stability z-score (lipoamide; arsenate co-treatment: none) of -3.61.

Work on DNAJC6 (UniProt O75061) yielded a thermal stability z-score (potassium arsenate) of 0.413, a thermal stability z-score (lipoamide; [1]) of 0.617 and a thermal stability z-score (lipoamide; arsenate co-treatment: none) of 0.625.

For DNAJC7 (UniProt Q99615), the thermal stability z-score (potassium arsenate) was -0.656, the thermal stability z-score (lipoamide; [1]) was -0.214 and the thermal stability z-score (lipoamide; arsenate co-treatment: none) was 0.475.

In the case of DNAJC8 (UniProt O75937), the thermal stability z-score (potassium arsenate) is reported as 1.25, the thermal stability z-score (lipoamide; [1]) is reported as 0.653 and the thermal stability z-score (lipoamide; arsenate co-treatment: none) is reported as 0.49.

Target DNAJC9 (UniProt Q8WXX5) has a thermal stability z-score (potassium arsenate) of -2.09, a thermal stability z-score (lipoamide; [1]) of 0.604 and a thermal stability z-score (lipoamide; arsenate co-treatment: none) of 0.566.

With DNAJC10 (UniProt Q8IXB1) the thermal stability z-score (potassium arsenate) was -0.253, the thermal stability z-score (lipoamide; [1]) was -3.47 and the thermal stability z-score (lipoamide; arsenate co-treatment: none) was -2.86.

For DNAJC11 (UniProt Q9NVH1), the thermal stability z-score (potassium arsenate) was 0.285, the thermal stability z-score (lipoamide; [1]) was 0.0767 and the thermal stability z-score (lipoamide; arsenate co-treatment: none) was -0.132.

Work on DNAJC12 (UniProt Q9UKB3) yielded a thermal stability z-score (potassium arsenate) of -0.108, a thermal stability z-score (lipoamide; [1]) of -0.279 and a thermal stability z-score (lipoamide; arsenate co-treatment: none) of -0.182.

Target DNAJC13 (UniProt O75165) has a thermal stability z-score (potassium arsenate) of 0.201, a thermal stability z-score (lipoamide; [1]) of -0.118 and a thermal stability z-score (lipoamide; arsenate co-treatment: none) of -0.226.

Target DNAJC15 (UniProt Q9Y5T4) has a thermal stability z-score (potassium arsenate) of -0.793, a thermal stability z-score (lipoamide; [1]) of 0.824 and a thermal stability z-score (lipoamide; arsenate co-treatment: none) of 0.507.

DNAJC16 (UniProt Q9Y2G8) gave a thermal stability z-score (potassium arsenate) of 0.00733, a thermal stability z-score (lipoamide; [1]) of -0.913 and a thermal stability z-score (lipoamide; arsenate co-treatment: none) of -2.01.

In the case of DNAJC17 (UniProt Q9NVM6), the thermal stability z-score (potassium arsenate) is reported as -0.299, the thermal stability z-score (lipoamide; [1]) is reported as 0.0174 and the thermal stability z-score (lipoamide; arsenate co-treatment: none) is reported as 0.0121.

With DNAJC19 (UniProt Q96DA6) the thermal stability z-score (potassium arsenate) was 0.253, the thermal stability z-score (lipoamide; [1]) was 0.522 and the thermal stability z-score (lipoamide; arsenate co-treatment: none) was 0.211.

With DNAJC21 (UniProt Q5F1R6) the thermal stability z-score (potassium arsenate) was 0.00418, the thermal stability z-score (lipoamide; [1]) was -0.615 and the thermal stability z-score (lipoamide; arsenate co-treatment: none) was -0.205.

DNAJC25 (UniProt Q9H1X3) showed a thermal stability z-score (potassium arsenate) of 0.282, a thermal stability z-score (lipoamide; [1]) of -1.46 and a thermal stability z-score (lipoamide; arsenate co-treatment: none) of -0.0502.

In the case of DNAJC30 (UniProt Q96LL9), the thermal stability z-score (potassium arsenate) is reported as 0.0918, the thermal stability z-score (lipoamide; [1]) is reported as -0.154 and the thermal stability z-score (lipoamide; arsenate co-treatment: none) is reported as -0.0708.

DNASE2 (UniProt O00115) showed a thermal stability z-score (potassium arsenate) of 0.114, a thermal stability z-score (lipoamide; [1]) of 0.424 and a thermal stability z-score (lipoamide; arsenate co-treatment: none) of 0.747.

DNM1L (UniProt O00429) was tested, and the thermal stability z-score (potassium arsenate) was 0.237, the thermal stability z-score (lipoamide; [1]) was -0.508 and the thermal stability z-score (lipoamide; arsenate co-treatment: none) was 0.234.

Work on DNM2 (UniProt P50570) yielded a thermal stability z-score (potassium arsenate) of 0.304, a thermal stability z-score (lipoamide; [1]) of -0.494 and a thermal stability z-score (lipoamide; arsenate co-treatment: none) of -0.287.

Target DNMBP (UniProt Q6XZF7) has a thermal stability z-score (potassium arsenate) of 0.897, a thermal stability z-score (lipoamide; [1]) of -0.142 and a thermal stability z-score (lipoamide; arsenate co-treatment: none) of -0.138.

Target DNMT1 (UniProt P26358) has a thermal stability z-score (potassium arsenate) of -0.517, a thermal stability z-score (lipoamide; [1]) of -0.115 and a thermal stability z-score (lipoamide; arsenate co-treatment: none) of 0.0323.

DNPEP (UniProt Q9ULA0) showed a thermal stability z-score (potassium arsenate) of 0.248, a thermal stability z-score (lipoamide; [1]) of -0.183 and a thermal stability z-score (lipoamide; arsenate co-treatment: none) of 0.0127.

In the case of DNPH1 (UniProt O43598), the thermal stability z-score (potassium arsenate) is reported as -0.0373, the thermal stability z-score (lipoamide; [1]) is reported as 0.0889 and the thermal stability z-score (lipoamide; arsenate co-treatment: none) is reported as -0.11.

Target DNTTIP2 (UniProt Q5QJE6) has a thermal stability z-score (potassium arsenate) of 0.279, a thermal stability z-score (lipoamide; [1]) of 0.201 and a thermal stability z-score (lipoamide; arsenate co-treatment: none) of 0.12.

Target DOCK1 (UniProt Q14185) has a thermal stability z-score (potassium arsenate) of 0.0692, a thermal stability z-score (lipoamide; [1]) of -0.371 and a thermal stability z-score (lipoamide; arsenate co-treatment: none) of -1.05.

With DOCK5 (UniProt Q9H7D0) the thermal stability z-score (potassium arsenate) was -0.0423, the thermal stability z-score (lipoamide; [1]) was -0.433 and the thermal stability z-score (lipoamide; arsenate co-treatment: none) was -0.478.

Work on DOCK6 (UniProt Q96HP0) yielded a thermal stability z-score (potassium arsenate) of -0.391, a thermal stability z-score (lipoamide; [1]) of -0.406 and a thermal stability z-score (lipoamide; arsenate co-treatment: none) of -0.347.

DOCK7 (UniProt Q96N67) was tested, and the thermal stability z-score (potassium arsenate) was 0.962, the thermal stability z-score (lipoamide; [1]) was -0.23 and the thermal stability z-score (lipoamide; arsenate co-treatment: none) was 0.0599.

Target DOCK9 (UniProt Q9BZ29) has a thermal stability z-score (potassium arsenate) of -0.457, a thermal stability z-score (lipoamide; [1]) of -0.191 and a thermal stability z-score (lipoamide; arsenate co-treatment: none) of -0.0295.

In the case of DOCK10 (UniProt Q96BY6), the thermal stability z-score (potassium arsenate) is reported as 0.0405, the thermal stability z-score (lipoamide; [1]) is reported as -0.106 and the thermal stability z-score (lipoamide; arsenate co-treatment: none) is reported as -0.259.

For DOCK11 (UniProt Q5JSL3), the thermal stability z-score (potassium arsenate) was -0.755, the thermal stability z-score (lipoamide; [1]) was -0.016 and the thermal stability z-score (lipoamide; arsenate co-treatment: none) was 0.0791.

In the case of DOHH (UniProt Q9BU89), the thermal stability z-score (potassium arsenate) is reported as 0.721, the thermal stability z-score (lipoamide; [1]) is reported as -0.0847 and the thermal stability z-score (lipoamide; arsenate co-treatment: none) is reported as 0.18.

DOK1 (UniProt Q99704) was tested, and the thermal stability z-score (potassium arsenate) was -0.45, the thermal stability z-score (lipoamide; [1]) was 0.221 and the thermal stability z-score (lipoamide; arsenate co-treatment: none) was -0.608.

Work on DOPEY2 (UniProt Q9Y3R5) yielded a thermal stability z-score (potassium arsenate) of -0.9, a thermal stability z-score (lipoamide; [1]) of 1.01 and a thermal stability z-score (lipoamide; arsenate co-treatment: none) of 0.402.

Target DPAGT1 (UniProt Q9H3H5) has a thermal stability z-score (potassium arsenate) of -0.109, a thermal stability z-score (lipoamide; [1]) of -0.304 and a thermal stability z-score (lipoamide; arsenate co-treatment: none) of 0.836.

In the case of DPCD (UniProt Q9BVM2), the thermal stability z-score (potassium arsenate) is reported as 0.0166, the thermal stability z-score (lipoamide; [1]) is reported as -0.929 and the thermal stability z-score (lipoamide; arsenate co-treatment: none) is reported as -0.513.

For DPF2 (UniProt Q92785), the thermal stability z-score (potassium arsenate) was -5.05, the thermal stability z-score (lipoamide; [1]) was 2.86 and the thermal stability z-score (lipoamide; arsenate co-treatment: none) was 2.98.

Target DPH1 (UniProt Q9BZG8) has a thermal stability z-score (potassium arsenate) of -1.29, a thermal stability z-score (lipoamide; [1]) of -0.233 and a thermal stability z-score (lipoamide; arsenate co-treatment: none) of -0.119.

DPH2 (UniProt Q9BQC3) was tested, and the thermal stability z-score (potassium arsenate) was -1.17, the thermal stability z-score (lipoamide; [1]) was -0.0475 and the thermal stability z-score (lipoamide; arsenate co-treatment: none) was -0.355.

Target DPH5 (UniProt Q9H2P9) has a thermal stability z-score (potassium arsenate) of -0.179, a thermal stability z-score (lipoamide; [1]) of 0.634 and a thermal stability z-score (lipoamide; arsenate co-treatment: none) of 1.89.

Work on DPH6 (UniProt Q7L8W6) yielded a thermal stability z-score (potassium arsenate) of -0.722, a thermal stability z-score (lipoamide; [1]) of -0.187 and a thermal stability z-score (lipoamide; arsenate co-treatment: none) of -0.152.

For DPH7 (UniProt Q9BTV6), the thermal stability z-score (potassium arsenate) was 0.093, the thermal stability z-score (lipoamide; [1]) was -1.62 and the thermal stability z-score (lipoamide; arsenate co-treatment: none) was 0.272.

DPM1 (UniProt O60762) showed a thermal stability z-score (potassium arsenate) of 0.383, a thermal stability z-score (lipoamide; [1]) of 0.673 and a thermal stability z-score (lipoamide; arsenate co-treatment: none) of 0.429.

Work on DPP3 (UniProt Q9NY33) yielded a thermal stability z-score (potassium arsenate) of -0.00156, a thermal stability z-score (lipoamide; [1]) of 0.77 and a thermal stability z-score (lipoamide; arsenate co-treatment: none) of 0.569.
